Assay results published in PubChem BioAssay (NCI).
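96-well plates; 48 h exposure; 5 concentrations. Endpoints by linear interpolation between flanking doses. Not reached: highest tested concentration assigned. TGI: concentration producing complete growth inhibition.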

Experiments:
Test in all cases: growth of human tumour cells (NCI), 48 h
786-0 renal = system: 786-0 renal
A498 renal = system: A498 renal
A549 NSCLC = system: A549 NSCLC
ACHN renal = system: ACHN renal
CAKI-1 renal = system: CAKI-1 renal
CCRF-CEM leukemia = system: CCRF-CEM leukemia
COLO 205 colon = system: COLO 205 colon
DU-145 prostate = system: DU-145 prostate
EKVX NSCLC = system: EKVX NSCLC
HCC-2998 colon = system: HCC-2998 colon
HCT-116 colon = system: HCT-116 colon
HCT-15 colon = system: HCT-15 colon
HL-60(TB) leukemia = system: HL-60(TB) leukemia
HOP-62 NSCLC = system: HOP-62 NSCLC
HOP-92 NSCLC = system: HOP-92 NSCLC
HS 578T breast = system: HS 578T breast
HT29 colon = system: HT29 colon
IGROV1 ovarian = system: IGROV1 ovarian
K-562 leukemia = system: K-562 leukemia
KM12 colon = system: KM12 colon
LOX IMVI melanoma = system: LOX IMVI melanoma
M14 melanoma = system: M14 melanoma
MALME-3M melanoma = system: MALME-3M melanoma
MCF7 breast = system: MCF7 breast
MDA-MB-231 breast = system: MDA-MB-231 breast
MDA-MB-435 = system: MDA-MB-435
MDA-N = system: MDA-N
MOLT-4 leukemia = system: MOLT-4 leukemia
NCI-H226 lung = system: NCI-H226 lung
NCI-H23 lung = system: NCI-H23 lung
NCI-H460 lung = system: NCI-H460 lung
NCI-H522 lung = system: NCI-H522 lung
NCI/ADR-RES ovarian = system: NCI/ADR-RES ovarian
OVCAR-3 ovarian = system: OVCAR-3 ovarian
OVCAR-4 ovarian = system: OVCAR-4 ovarian
OVCAR-8 ovarian = system: OVCAR-8 ovarian
PC-3 prostate = system: PC-3 prostate
RPMI-8226 leukemia = system: RPMI-8226 leukemia
RXF 393 renal = system: RXF 393 renal
SF-268 CNS = system: SF-268 CNS
SF-295 CNS = system: SF-295 CNS
SF-539 CNS = system: SF-539 CNS
SK-MEL-2 melanoma = system: SK-MEL-2 melanoma
SK-MEL-28 melanoma = system: SK-MEL-28 melanoma
SK-MEL-5 melanoma = system: SK-MEL-5 melanoma
SK-OV-3 ovarian = system: SK-OV-3 ovarian
SN12C renal = system: SN12C renal
SNB-19 CNS = system: SNB-19 CNS
SNB-75 CNS = system: SNB-75 CNS
SR leukemia = system: SR leukemia
SW-620 colon = system: SW-620 colon
T-47D breast = system: T-47D breast
TK-10 renal = system: TK-10 renal
U251 CNS = system: U251 CNS
UACC-257 melanoma = system: UACC-257 melanoma
UACC-62 melanoma = system: UACC-62 melanoma
UO-31 renal = system: UO-31 renal
BT-549 breast = system: BT-549 breast
OVCAR-5 ovarian = system: OVCAR-5 ovarian

`CSc1ccc(NC(=S)NN(C)C)cc1` was tested, and the TGI (786-0 renal) was > 10 µM, the TGI (A498 renal) was > 10 µM and the TGI (A549 NSCLC) was > 10 µM. For the same molecule, the TGI (ACHN renal) was > 10 µM, the TGI (CAKI-1 renal) was > 10 µM and the TGI (CCRF-CEM leukemia) was > 10 µM. For the same molecule, the TGI (COLO 205 colon) was > 10 µM, the TGI (DU-145 prostate) was > 10 µM and the TGI (EKVX NSCLC) was > 10 µM. For the same molecule, the TGI (HCC-2998 colon) was > 10 µM, the TGI (HCT-116 colon) was > 10 µM and the TGI (HCT-15 colon) was > 10 µM. For the same molecule, the TGI (HL-60(TB) leukemia) was > 10 µM, the TGI (HOP-62 NSCLC) was > 10 µM and the TGI (HOP-92 NSCLC) was > 10 µM. The TGI (HS 578T breast) was > 10 µM, the TGI (HT29 colon) was > 10 µM and the TGI (IGROV1 ovarian) was > 10 µM. For the same molecule, the TGI (K-562 leukemia) was > 10 µM, the TGI (KM12 colon) was > 10 µM and the TGI (LOX IMVI melanoma) was > 10 µM. The TGI (M14 melanoma) was > 10 µM, the TGI (MALME-3M melanoma) was > 10 µM and the TGI (MCF7 breast) was > 10 µM. The TGI (MDA-MB-231 breast) was > 10 µM, the TGI (MDA-MB-435) was > 10 µM and the TGI (MDA-N) was > 10 µM. For the same molecule, the TGI (MOLT-4 leukemia) was > 10 µM, the TGI (NCI-H226 lung) was > 10 µM and the TGI (NCI-H23 lung) was > 10 µM. For the same molecule, the TGI (NCI-H460 lung) was > 10 µM, the TGI (NCI-H522 lung) was > 10 µM and the TGI (NCI/ADR-RES ovarian) was > 10 µM. The TGI (OVCAR-3 ovarian) was > 10 µM, the TGI (OVCAR-4 ovarian) was > 10 µM and the TGI (OVCAR-8 ovarian) was > 10 µM. The TGI (PC-3 prostate) was > 10 µM, the TGI (RPMI-8226 leukemia) was > 10 µM and the TGI (RXF 393 renal) was > 10 µM. For the same molecule, the TGI (SF-268 CNS) was > 10 µM, the TGI (SF-295 CNS) was > 10 µM and the TGI (SF-539 CNS) was > 10 µM. The TGI (SK-MEL-2 melanoma) was > 10 µM, the TGI (SK-MEL-28 melanoma) was > 10 µM and the TGI (SK-MEL-5 melanoma) was > 10 µM. The TGI (SK-OV-3 ovarian) was > 10 µM, the TGI (SN12C renal) was > 10 µM and the TGI (SNB-19 CNS) was > 10 µM. The TGI (SNB-75 CNS) was > 10 µM, the TGI (SR leukemia) was > 10 µM and the TGI (SW-620 colon) was > 10 µM. For the same molecule, the TGI (T-47D breast) was > 10 µM, the TGI (TK-10 renal) was > 10 µM and the TGI (U251 CNS) was > 10 µM. For the same molecule, the TGI (UACC-257 melanoma) was > 10 µM, the TGI (UACC-62 melanoma) was > 10 µM and the TGI (UO-31 renal) was > 10 µM.

For `O=C1CCC(=O)N1n1c(Cc2ccc(Cl)cc2)n[nH]c1=O`, the TGI (786-0 renal) was > 100 µM, the TGI (A498 renal) was > 100 µM and the TGI (A549 NSCLC) was > 100 µM. For the same molecule, the TGI (ACHN renal) was > 100 µM, the TGI (BT-549 breast) was > 100 µM and the TGI (CAKI-1 renal) was > 100 µM. The TGI (COLO 205 colon) was > 100 µM, the TGI (DU-145 prostate) was > 100 µM and the TGI (EKVX NSCLC) was > 100 µM. For the same molecule, the TGI (HCC-2998 colon) was > 100 µM, the TGI (HCT-116 colon) was > 100 µM and the TGI (HCT-15 colon) was > 100 µM. The TGI (HL-60(TB) leukemia) was > 100 µM, the TGI (HOP-92 NSCLC) was > 100 µM and the TGI (HS 578T breast) was > 100 µM. For the same molecule, the TGI (HT29 colon) was > 100 µM, the TGI (IGROV1 ovarian) was > 100 µM and the TGI (K-562 leukemia) was > 100 µM. For the same molecule, the TGI (KM12 colon) was > 100 µM, the TGI (LOX IMVI melanoma) was > 100 µM and the TGI (M14 melanoma) was > 100 µM. The TGI (MALME-3M melanoma) was > 100 µM, the TGI (MCF7 breast) was > 100 µM and the TGI (MDA-MB-231 breast) was > 100 µM. For the same molecule, the TGI (MDA-MB-435) was > 100 µM, the TGI (MDA-N) was > 100 µM and the TGI (MOLT-4 leukemia) was > 100 µM. The TGI (NCI-H226 lung) was > 100 µM, the TGI (NCI-H23 lung) was > 100 µM and the TGI (NCI-H460 lung) was > 100 µM. The TGI (NCI-H522 lung) was > 100 µM, the TGI (NCI/ADR-RES ovarian) was > 100 µM and the TGI (OVCAR-3 ovarian) was > 100 µM. The TGI (OVCAR-4 ovarian) was > 100 µM, the TGI (OVCAR-5 ovarian) was > 100 µM and the TGI (OVCAR-8 ovarian) was > 100 µM. For the same molecule, the TGI (PC-3 prostate) was > 100 µM, the TGI (RPMI-8226 leukemia) was > 100 µM and the TGI (SF-268 CNS) was > 100 µM. The TGI (SF-295 CNS) was > 100 µM, the TGI (SF-539 CNS) was > 100 µM and the TGI (SK-MEL-2 melanoma) was > 100 µM. For the same molecule, the TGI (SK-MEL-28 melanoma) was > 100 µM, the TGI (SK-MEL-5 melanoma) was > 100 µM and the TGI (SK-OV-3 ovarian) was > 100 µM. For the same molecule, the TGI (SN12C renal) was > 100 µM, the TGI (SNB-19 CNS) was > 100 µM and the TGI (SW-620 colon) was > 100 µM. For the same molecule, the TGI (T-47D breast) was > 100 µM, the TGI (TK-10 renal) was > 100 µM and the TGI (U251 CNS) was > 100 µM. For the same molecule, the TGI (UACC-257 melanoma) was > 100 µM, the TGI (UACC-62 melanoma) was > 100 µM and the TGI (UO-31 renal) was > 100 µM.
